Our source for the IC50 values is patent US20130317029A1 (PORTOLA PHARMACEUTICALS, INC., priority 2010, published 2013).

The assay deals with T1, full length active recombinant SYK enzyme (Homo sapiens, UniProt P43405).
T1 construct: full length active recombinant SYK enzyme (Millipore, Calif.); purchased Millipore
The assay can be described thus: Inhibition of Syk tyrosine phosphorylation activity (LANCE TR-FRET kinase assay). It is filed as biochemical. An excerpt: This example illustrates methods for evaluating the compounds of the invention, along with results obtained for such assays. The in vitro and in vivo human Syk activities of the inventive compounds can be determined by various procedures known in the art, such as a test for their ability to inhibit the activity of human plasma Syk. […] The IC50 value is the concentration (in nM) of the compound required to provide 50% inhibition of human Syk proteolytic activity.
Potency of candidate molecules for inhibiting Syk tyrosine phosphorylation activity is assessed by measuring the ability of a test compound to inhibit Syk-mediated tyrosine phosphorylation of a Syk-specific substrate.
SYK tyrosine phosphorylation activity is measured using the LANCE™ Technology developed by Perkin Elmer Life and Analytical Sciences (Boston, Mass.). LANCE™ refers to homogeneous time resolved fluorometry applications using techniques such as time-resolved fluorescence resonance energy transfer assay (TR-FRET) (see generally for procedures in Perkin Elmer Application Note—How to Optimize a Tyrosine Kinase Assay Using Time Resolved Fluorescence-Based LANCE Detection, wwww.perkinelmer.com/lifesciences). The assay principle involves detection of a phosphorylated substrate using energy transfer from a phosphospecific europium-labeled antibody to streptavidin-allophycocyanin as an acceptor.
To test the ability of candidate molecules to inhibit SYK tyrosine phosphorylation activity, molecules are reconstituted in 30% DMSO and serially diluted 1:3 with the final dilution containing DMSO in the absence of the candidate molecule. The final DMSO concentration in the assay is 3%. Kinase assays are performed as a two part reaction. The first reaction is a kinase reaction and which comprises of a candidate molecule, full length active recombinant SYK enzyme (Millipore, Calif.) and biotin-labeled SYK-specific substrate biotin-[…]-OH. The second reaction involves termination of the kinase reaction and the simultaneous addition of the detection reagents-europium-labeled anti-phosphotyrosine reagent (Eu-W1024-PY100, Perkin Elmer, Boston, Mass.) and Streptavidin-Allophycocyanin detection reagent (SA-APC, Prozyme, Calif.). The kinase reaction is performed in a black U-bottom 96-well microtitre plate. The final reaction volume is 50 μL and contains a final concentration of 1 nM active SYK enzyme, 550 nM SYK-substrate, and 100 μM ATP diluted in a buffer containing 50 mM Tris pH 7.5, 5 mM MgCl2, and 1 mM DTT. The reaction is allowed to proceed for 1 hour at room temperature. The quench buffer contains 100 mM Tris pH 7.5, 300 mM NaCl2, 20 mM EDTA, 0.02% Brij35, and 0.5% BSA. The detection reagents are added to the reaction mixture at the following dilutions-1:500 for Eu-W1024-PY100 and 1:250 for SA-APC. The kinase reaction is terminated by the addition of 50 μL quench buffer containing the detection reagents. The detection is allowed to proceed for 1 hr at room temperature. Detection of the phosphorlated substrate in the absence and presence of inhibitors is measured in the TR-FRET instrument, Analyst HT (Molecular Probes, Sunnyvale, Calif.) and the condition for measurements are set up using CriterionHost Release 2.0 (Molecular Probes, Sunnyvale, Calif.). The settings used are a follows: excitation 360 nm, emission 665-7.5 nm, beam splitter 350 nm 50/50, flash 100 pulses, delay 60 us, integration 400 us, z-height 2 mm. Inhibition of SYK-tyrosine kinase activity is calculated as the maximum response observed in the presence of inhibitor, compared to that in the absence of inhibitor. IC50s were derived by non-linear regression analysis.
For `COc1nc(NC2CCCCC2N)nc(Nc2cc(C)cc(C)c2)c1C(N)=O` (stereo not drawn) [Example 65, 2-(2-aminocyclohexylamino)-4-(3,5-dimethylphenylamino)-6-methoxypyrimidine-5-carboxamide], the half-maximal inhibitory concentration (IC50) fell in the range of 10 to 100 nM.
With `NC(=O)c1c(NC2CC2)nc(Nc2ccc(S(N)(=O)=O)cc2)[nH]c1=O` [Example 44, 4-(cyclopropylamino)-6-oxo-2-(4-sulfamoylphenylamino)-1,6-dihydropyrimidine-5-carboxamide], the IC50 was above 1000 nM.
As for `CC(C)C[C@@H](Nc1nc(Nc2ccc(-c3ccncc3)cc2)c(C(N)=O)c(=O)[nH]1)C(N)=O` [Example 111, (R)-2-(1-amino-4-methyl-1-oxopentan-2-ylamino)-6-oxo-4-(4-(pyridin-4-yl)phenylamino)-1,6-dihydropyrimidine-5-carboxamide], the IC50 lay within 1 to 10 nM.
Regarding `COc1nc(N[C@@H](C(N)=O)C(C)C)nc(Nc2ccc3ncccc3c2)c1C(N)=O` [Example 15, (R)-2-(1-amino-3-methyl-1-oxobutan-2-ylamino)-4-methoxy-6-(quinolin-6-ylamino)pyrimidine-5-carboxamide], the half-maximal inhibitory concentration (IC50) was in the range of 10 to 100 nM.
With `CC(=O)N(C)c1ccc(Nc2nc(NC3CC3)[nH]c(=O)c2C(N)=O)cc1` [Example 43, 2-(cyclopropylamino)-4-(4-(N-methylacetamido)phenylamino)-6-oxo-1,6-dihydropyrimidine-5-carboxamide], the IC50 was above 1000 nM.
In the case of `CC(C)C[C@@H](Nc1nc(Nc2cccc(-c3ccccn3)c2)c(C(N)=O)c(=O)[nH]1)C(N)=O` [Example 40, (R)-2-(1-amino-4-methyl-1-oxopentan-2-ylamino)-6-oxo-4-(3-(pyridin-2-yl)phenylamino)-1,6-dihydropyrimidine-5-carboxamide], the IC50 was in the range of 1 to 10 nM.
Take `Cc1cccc(Nc2nc(NC[C@H](C)N)nc(OCCO)c2C(N)=O)c1` [Example 53, (S)-4-(m-toluidino)-2-(2-aminopropylamino)-6-(2-hydroxyethoxy)pyrimidine-5-carboxamide]: the concentration for half-maximal inhibition (IC50) was above 1000 nM.
Turning to `COc1nc(N[C@@H]2CCCC[C@@H]2N)nc(Nc2cccc(-n3nccn3)c2)c1C(N)=O` [Example 3, 2-((1R,2S)-2-aminocyclohexylamino)-4-(3-(2H-1,2,3-triazol-2-yl)phenylamino)-6-methoxypyrimidine-5-carboxamide], the IC50 fell in the range of 10 to 100 nM.
For the molecule `COc1nc(N[C@@H](C(N)=O)c2ccccc2)nc(Nc2cccc(C)c2)c1C(N)=O` [Example 71, (R)-4-(m-toluidino)-2-(2-amino-2-oxo-1-phenylethylamino)-6-methoxypyrimidine-5-carboxamide], the IC50 lay in the range of 100 to 1000 nM.
As for `COc1nc(N[C@H](C)C(N)=O)nc(Nc2cc(C)cc(C)c2)c1C(N)=O` [Example 66, (R)-2-(1-amino-1-oxopropan-2-ylamino)-4-(3,5-dimethylphenylamino)-6-methoxypyrimidine-5-carboxamide], the 50% inhibitory concentration (IC50) lay in the range of 100 to 1000 nM.
On to `CNCCNc1nc(Nc2cccc(-n3nccn3)c2)c(C(N)=O)c(=O)[nH]1` [Example 23, 4-(3-(2H-1,2,3-triazol-2-yl)phenylamino)-2-(2-(methylamino)ethylamino)-6-oxo-1,6-dihydropyrimidine-5-carboxamide], for which the IC50 lay within 10 to 100 nM.
Take `CNCCNc1nc(Nc2cccc(C)c2)c(C(N)=O)c(=O)[nH]1` [Example 14]: the concentration for half-maximal inhibition (IC50) lay within 10 to 100 nM.
Next, `CC(C)C[C@@H](Nc1nc(Nc2cccc(-c3ncccc3F)c2)c(C(N)=O)c(=O)[nH]1)C(N)=O` [Example 80, (R)-2-(1-amino-4-methyl-1-oxopentan-2-ylamino)-6-oxo-4-(3-(3-fluoropyridin-2-yl)phenylamino)-1,6-dihydropyrimidine-5-carboxamide]: 1 to 10 nM; `Cc1cc(C)cc(Nc2nc(NCC(N)=O)[nH]c(=O)c2C(N)=O)c1` [Example 49, 2-(2-amino-2-oxoethylamino)-4-(3,5-dimethylphenylamino)-6-oxo-1,6-dihydropyrimidine-5-carboxamide]: 10 to 100 nM; `CC[C@@H](Nc1nc(Nc2ccc3ncccc3c2)c(C(N)=O)c(OC)n1)C(N)=O` [Example 16, (R)-2-(1-amino-1-oxobutan-2-ylamino)-4-methoxy-6-(quinolin-6-ylamino)pyrimidine-5-carboxamide]: 10 to 100 nM.
With `CCOc1nc(N[C@@H](C(N)=O)C(C)C)nc(Nc2cc(C)cc(C)c2)c1C(N)=O` [Example 4, (R)-2-(1-amino-3-methyl-1-oxobutan-2-ylamino)-4-(3,5-dimethylphenylamino)-6-ethoxypyrimidine-5-carboxamide], the IC50 lay in the range of 100 to 1000 nM.
Consider `COc1ccc(Nc2nc(N[C@H](CC(C)C)C(N)=O)[nH]c(=O)c2C(N)=O)cc1OC` [Example 83, (R)-2-(1-amino-4-methyl-1-oxopentan-2-ylamino)-4-(3,4-dimethoxyphenylamino)-6-oxo-1,6-dihydropyrimidine-5-carboxamide], for which the IC50 was below 1 nM.
Next, `CC(C)C[C@@H](Nc1nc(Nc2cccc(-c3cccnc3)c2)c(C(N)=O)c(=O)[nH]1)C(N)=O` [Example 97, (R)-2-(1-amino-4-methyl-1-oxopentan-2-ylamino)-6-oxo-4-(3-(pyridin-3-yl)phenylamino)-1,6-dihydropyrimidine-5-carboxamide]: 1 to 10 nM; `NC(=O)c1c(Nc2cccc(-c3ccccn3)c2)nc(N[C@H](CC2CC2)C(N)=O)[nH]c1=O` [Example 95, (R)-2-(1-amino-3-cyclopropyl-1-oxopropan-2-ylamino)-6-oxo-4-(3-(pyridin-2-yl)phenylamino)-1,6-dihydropyrimidine-5-carboxamide]: 1 to 10 nM.
With `CC(C)C[C@@H](Nc1nc(Nc2ccc3ncsc3c2)c(C(N)=O)c(=O)[nH]1)C(N)=O` [Example 29] the figure was below 1 nM.
On to `CC(C)C[C@@H](Nc1nc(Nc2ccc(-c3ccccn3)cc2)c(C(N)=O)c(=O)[nH]1)C(N)=O` [Example 113, (R)-2-(1-amino-4-methyl-1-oxopentan-2-ylamino)-6-oxo-4-(4-(pyridin-2-yl)phenylamino)-1,6-dihydropyrimidine-5-carboxamide], for which the IC50 lay within 1 to 10 nM.
As for `COc1nc(NC[C@H](C)N)nc(Nc2cc(C)cc(C)c2)c1C(N)=O` [Example 68, (S)-2-(2-aminopropylamino)-4-(3,5-dimethylphenylamino)-6-methoxypyrimidine-5-carboxamide], the IC50 was in the range of 100 to 1000 nM.
Regarding `CNC(=O)[C@@H](CC(C)C)Nc1nc(Nc2cccc(-n3cccn3)c2)c(C(N)=O)c(=O)[nH]1` [Example 104, (R)-4-(3-(1H-pyrazol-1-yl)phenylamino)-2-(4-methyl-1-(methylamino)-1-oxopentan-2-ylamino)-6-oxo-1,6-dihydropyrimidine-5-carboxamide], the IC50 is above 1000 nM.
For `CC(=O)N1CCN(c2ccc(Nc3nc(NC4CCC4)c(C(N)=O)c(=O)[nH]3)cc2)CC1` [Example 47, 2-(4-(4-acetylpiperazin-1-yl)phenylamino)-4-(cyclobutylamino)-6-oxo-1,6-dihydropyrimidine-5-carboxamide], the IC50 is above 1000 nM.
Next, `Cc1cc(C)cc(Nc2nc(NC3CC3)[nH]c(=O)c2C(N)=O)c1` [Example 60, 2-(cyclopropylamino)-4-(3,5-dimethylphenylamino)-6-oxo-1,6-dihydropyrimidine-5-carboxamide]: above 1000 nM.
With `NC(=O)c1c(Nc2ccc(S(N)(=O)=O)cc2)nc(NC2CC2)[nH]c1=O` [Example 42, 2-(cyclopropylamino)-6-oxo-4-(4-sulfamoylphenylamino)-1,6-dihydropyrimidine-5-carboxamide] the figure was 10 to 100 nM; with `CC[C@@H](Nc1nc(Nc2cccc(-n3nccn3)c2)c(C(N)=O)c(=O)[nH]1)C(N)=O` [Example 8, (R)-4-(3-(2H-1,2,3-triazol-2-yl)phenylamino)-2-(1-amino-1-oxobutan-2-ylamino)-6-oxo-1,6-dihydropyrimidine-5-carboxamide], 10 to 100 nM.

What is called IC50 is the point on the concentration scale where inhibition reaches its midpoint.
